We go through seven compounds from PMC6921407, “Novel coumarins active against Trypanosoma cruzi and toxicity assessment using the animal model Caenorhabditis elegans” (BMC Pharmacology & Toxicology, 2019).

“And” between values parts separate entries of the source, which are not always exact repeats. Equal values may be shown once. Read-outs that look alike come from different tables or passages of the source.

One data set relates to T. cruzi. On the set-up: method as in doi:10.1351/pac200173030617. To be noted: proposed mechanism glyceraldehyde 3-phosphate dehydrogenase inhibition; cited from earlier work.
The test system of data set [1] is Trypanosoma cruzi epimastigotes (Tulahuen 2 strain). The data set is described as follows: Anti-Trypanosoma cruzi activity: growth inhibition of epimastigotes (absorbance at 600 nm, day 5). The format is cell-based. To be noted: T. cruzi epimastigotes; for IC50: read-out: IC50. As for the experimental part: Trypanosoma cruzi epimastigotes (Tulahuen 2 strain) were grown at 28 °C in an axenic milieu (BHI-Tryptose) supplemented with 5% fetal bovine serum (FBS), as previously described. Cells from a 10-day-old culture (stationary phase) were inoculated into 50 mL of fresh culture milieu to give an initial concentration of 1 × 10^6 cells per mL. Cell growth was followed by measuring the absorbance of the culture at 600 nm every day. Before inoculation, the milieu was supplemented with a given amount of the coumarin from a freshly prepared stock solution in DMSO (25 mM). The final concentration of DMSO in the culture medium never exceeded 0.4%, and the control was run in the presence of 0.4% DMSO and in the absence of drugs. […] Nifurtimox (Nfx) was used as the reference trypanocidal drug. The percentage of growth inhibition (PGI) was calculated as follows: PGI (%) = {1 - [(Ap - A0p) / (Ac - A0c)]} × 100, where Ap = […] of the culture containing the studied compound at day 5; […] = […] of the culture containing the studied compound just after addition of the inocula (day 0); Ac = […] of the culture in the absence of the studied compound (control) at day 5; […] = […] in the absence of the studied compound at day 0. […] At day 5, the absorbance of the culture was measured and related to the control.

For data set [2], the system named is Caenorhabditis elegans N2 (wild type). The settings on record: L1 worms exposed 30 min, survival counted 24 hours after exposure. How it is done: The nematode strain used was N2 (wild type), originally obtained from the Caenorhabditis Genetics Center (University of Minnesota, Twin Cities, MN, USA), which was maintained on nematode growth medium (NGM) plates seeded with Escherichia coli OP50 at 20°C. Synchronization of C. elegans cultures at the first larval stage (L1) was achieved by washing off the gravid nematodes from the plates into the centrifuge tubes, which were lysed with a bleaching mixture (1% NaOCl; 0.25 M NaOH), followed by flotation on a sucrose solution 30% (m/v) to separate the eggs from the dissolved worms and bacterial debris. The eggs were washed with M9 buffer (0.02 M KH2PO4, 0.04 M Na2HPO4, 0.08 M NaCl, and 0.001 M MgSO4) and allowed to hatch overnight (16 hours) in NGM agar plates without bacteria. After 16 hours it was obtained worms at L1 stage. Then, 1.500 L1 worms were exposed for 30 minutes at 20°C, by constant agitation in a rotator, at crescent doses ranging from 25 to 100 mM of coumarins in a 0.5% NaCl liquid media. Stock solutions of coumarins were made in DMSO, therefore worms treated with 0.5% NaCl and 0.5% DMSO were used as controls. After exposure, worms were washed 3 times with 0.5% NaCl to remove the treatments. Finally, worms were transferred to NGM recovery plates inoculated with Escherichia coli (OP50) for posterior assays.
The LD50 of coumarins was determined in C. elegans after exposure. The worms were washed three times with NaCl buffer and placed on OP50-seeded NGM plates. The number of surviving worms on each plate was verified 24 hours after exposure. The lethality data was normalized with the controls and presented as a percentage. All the coumarins were tested in three independent experiments with each concentration tested in two replicates within each experiment.

Data set [3] deals with Trypanosoma cruzi epimastigotes (Tulahuen 2 strain). On the set-up: method as in PMID 19811923. To be noted: in vitro, epimastigote form of T. cruzi; cited from earlier work.
The subject of a further data set is C. elegans. Also noted: method as in PMID 23727123. To be noted: for the worm; cited from earlier work.
For another data set, the system named is Trypanosoma cruzi. Also noted: method as in PMID 24340110. To be noted: cited from earlier work.
In data set [4] the test system is Caenorhabditis elegans N2 (wild type). Kind of data set: Body area (worm development) of C. elegans after acute exposure. In kind it is in vivo. To be noted: 30 min exposure, measured 48 hours after exposure; tested 25 to 100 mM; ANOVA/Bonferroni. How it is done:
For the evaluation of body area, 48 hours after exposure the adult worms (20 nematodes per treatment) were photographed and their body contour was measured. For this, the NGM plates were washed with distilled water and the resulting solution was transferred to a centrifuge tube, where the worm was allowed to settle, separating it from the bacteria in suspension. The process was repeated until the solution became clear. […] The pictures were acquired from 20 worms per treatment, which were manually contoured and measured with AxioVision software LE version 4.8.2.0 for Windows.

Where [5] appears, read: Trypanosoma cruzi, TULAHUEN, 120 h.

A word on the IC50: it is the midpoint of a concentration-inhibition curve. As for `C=CC(C)(C)c1cc2cc3c(cc2oc1=O)O[C@H](C(C)(C)O)C3` [Chalepin], the IC50 in the data set with T. cruzi is 64 µM.

For the compound `CCc1ccc2oc(=O)cc(CN(C)c3ccccc3)c2c1` [11g], the results for the 50% inhibitory concentration (IC50) in data set [1] and in data set [1] (setting [5]) were less than 10 µM and 8.2 ± 2.3 µM, respectively. Moreover, the “GI (%) / percentage of growth inhibition (PGI)” value in data set [1] (test concentration not given) was less than 78.6%. For the same compound, the “LD50 (DL50)” value in data set [2] is 61.7 mM and 61.50 mM; in data set [2] (listed as LaSOM 231), 61.55 mM.

Consider `O=C(Cn1ccnc1[N+](=O)[O-])NCc1ccccc1` [Benznidazole], for which the “IC50 compared with Nifurtimox” value in data set [3] was “very similar IC50 values”.

Turning to `Cc1ccc2oc(=O)cc(CN(C)c3ccccc3)c2c1` [10g], the results for the 50% inhibitory concentration (IC50) in data set [1] and in data set [1] (setting [5]) were 8.9 µM and less than 10 µM, respectively. Also, in data set [2], the “LD50 (DL50)” value is reported as 42.3 mM.

One may read the EC50 as the concentration giving half of the maximal effect. For the compound `CCCSc1ccc2nc(NC(=O)OC)[nH]c2c1` [albendazole], the EC50 in the data set with C. elegans was 18.4 µM.

As for Soulamarin, in the data set on Trypanosoma cruzi, the IC50 is 210 µM.

As for `CCc1ccc2oc(=O)cc(CN(C)c3ccc(Cl)cc3)c2c1` [11h], the IC50 is less than 10 µM in data set [1] and 6.4 ± 1 µM in data set [1] (setting [5]). Further, the “concentrations with significant reduction of body area compared with the control” value in data set [4] worked out at 50000 µM. Further, the “LD50 (DL50)” value in data set [2] is 73.4 mM and 70.81 mM.
